The target in one experiment is human LSD1(172-833) (Homo sapiens (Human), UniProt O60341). The experiment in a line: Measurement of LSD1 inhibitory activity (time-resolved fluorescence, biotin-histone H3 mono methylated K4 peptide). The format is biochemical. The method, then: When the turbidity reached 500 Klett units, the culture temperature was changed to 16° C., IPTG (Isopropyl β-D-1-thiogalactopyranoside) having a final concentration of 0.5 mM was added to induce expression, and the cells were cultured further for 14 hr. The culture medium was centrifuged at 6,000 g for 15 min, and Escherichia coil pellets were recovered.
Using Branson ultrasonic disintegrator, the suspension was disrupted by ultrasonication for 3 min, and centrifuged at 33,000 g for 60 min, and the supernatant was recovered. […] It was concentrated to 10 mL with AmiconUltra (NWCO 30K) (Millipore Japan), and purified with HiLoad 26/60 Superdex 200 pg column (GE Healthcare) equilibrated with Buffer A to give hLSD1 purified product (8.4 mg). The protein concentration of hLSD1 was measured by BCA Protein Assay Kit (Thermo Fisher Scientific K.K.) using bovine serum albumin as the standard.
(5) Measurement of LSD1 Inhibitory Activity
After reaction at room temperature for 5 min, 1 mM 2-PCPA solution was added 5 μL to terminate the reaction. A detection solution ([…] potassium fluoride, 0.1% BSA) containing europium-labeled anti-histone H3 antibody (Wako Pure Chemical Industries, Ltd.) and Streptavidin-XL665 (Cisbio) was further added by 5 μL, and the mixture was left standing for 60 min.

The target of the next experiment is MAO-B enzyme (Homo sapiens (Human), UniProt P27338). Nature of the experiment: Measurement of MAO-B inhibitory activity (MAO-Glo Assay).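 Also: luminescence read-out, compound preincubated 10 min with enzyme then reacted 60 min at room temperature, inhibition relative to enzyme reaction without compound, blank lacking enzyme and compound.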 As to conditions: read-out: MAO-B IC50 value.
MAO-B enzyme, sequence (P27338 whole entry): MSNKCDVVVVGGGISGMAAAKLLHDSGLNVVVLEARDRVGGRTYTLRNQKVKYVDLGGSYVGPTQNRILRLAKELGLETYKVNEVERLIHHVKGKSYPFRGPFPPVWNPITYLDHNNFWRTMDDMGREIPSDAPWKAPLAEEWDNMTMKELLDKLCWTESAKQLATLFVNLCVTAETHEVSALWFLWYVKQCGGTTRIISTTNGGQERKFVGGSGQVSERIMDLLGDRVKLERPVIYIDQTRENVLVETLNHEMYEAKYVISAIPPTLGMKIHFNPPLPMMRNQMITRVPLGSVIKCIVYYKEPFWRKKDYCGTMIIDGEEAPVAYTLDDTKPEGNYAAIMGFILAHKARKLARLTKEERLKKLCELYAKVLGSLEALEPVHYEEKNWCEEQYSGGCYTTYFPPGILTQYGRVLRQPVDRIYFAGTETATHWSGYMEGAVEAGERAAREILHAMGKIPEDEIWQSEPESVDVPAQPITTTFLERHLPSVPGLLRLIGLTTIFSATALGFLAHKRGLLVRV
Another experiment has as its target MAO-A enzyme (Homo sapiens (Human), UniProt P21397). Nature of the experiment: Measurement of MAO-A inhibitory activity (MAO-Glo Assay). The format is biochemical.

This note sets out measurements from patent US9751885B2, “Cyclopropanamine compound and use thereof” (Takeda Pharmaceutical Company Limited, priority 2012, dated 2017).

In general, pIC50 refers to −log10 of the IC50, conventionally taken in molar units.

pIC50: −log10 of the molar value. Where a name gives a salt, the structure may show the parent alone. Some results are limits rather than exact numbers.

MAO-A enzyme, sequence (P21397 whole entry): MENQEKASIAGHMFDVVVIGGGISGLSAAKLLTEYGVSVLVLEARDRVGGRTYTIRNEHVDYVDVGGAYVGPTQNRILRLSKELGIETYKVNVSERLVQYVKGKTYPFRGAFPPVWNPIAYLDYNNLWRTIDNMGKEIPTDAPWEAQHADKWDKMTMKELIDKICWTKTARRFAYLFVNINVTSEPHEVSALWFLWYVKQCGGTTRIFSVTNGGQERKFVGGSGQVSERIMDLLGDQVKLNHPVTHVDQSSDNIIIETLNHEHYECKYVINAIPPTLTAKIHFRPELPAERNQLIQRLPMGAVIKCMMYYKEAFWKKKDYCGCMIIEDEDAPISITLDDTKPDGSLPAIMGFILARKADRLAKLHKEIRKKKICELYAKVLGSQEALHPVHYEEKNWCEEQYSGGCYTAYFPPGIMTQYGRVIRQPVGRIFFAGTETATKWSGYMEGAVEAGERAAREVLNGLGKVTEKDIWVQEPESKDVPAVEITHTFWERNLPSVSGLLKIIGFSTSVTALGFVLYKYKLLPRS
Protocol for MAO-B enzyme: The MAO-B inhibitory activity evaluation described below followed the protocol of MAO-Glo (registered trademark) Assay of Promega KK.
A test compound dissolved in 4% DMSO was added by 12.5 μL to 25 μL reaction solution (100 mM HEPES (pH 7.5), 5% glycerol, 10% DMSO) containing 400 ng of MAO-B enzyme (Sigma-Aldrich Co. LLC.), and the mixture was reacted at room temperature for 10 min. […] After reaction at room temperature for 60 min, Luciferine detection reagent (Promega KK) (50 μL) was added to terminate the reaction. After reaction at room temperature for 20 min with stirring, the luminescence was measured by Envision (PerkinElmer). The MAO-B inhibitory rate (%) of the test compound was calculated by the following formula. inhibitory rate(%)=(1−(test compound count−blank)÷(control−blank))×100
The count of the MAO-B enzyme reaction mixture under compound non-addition conditions is indicated as control, and the count under compound non-addition and MAO-B enzyme non-addition conditions is indicated as blank.

As for `COc1cc(Cl)ccc1CN[C@@H]1C[C@H]1c1ccc(C(=O)NCc2ccccc2)cc1` (relative stereo) [Example 41, N-benzyl-4-(trans-2-((4-chloro-2-methoxybenzyl)amino)cyclopropyl)benzamide trifluoroacetate], the negative-log IC50 (pIC50) is > 7.00 on human LSD1(172-833), < 5.00 at MAO-B enzyme and 5.18 against MAO-A enzyme.
On the same counts, the results for `Cc1ncc(NC(=O)c2cccc([C@@H]3C[C@H]3NC3CCC3)c2)s1` (relative stereo) [Example 210, 3-(trans-2-(cyclobutylamino)cyclopropyl)-N-(2-methyl-1,3-thiazol-5-yl)benzamide dihydrochloride] are > 7.00, < 5.00 and < 5.00.
On the same counts, the results for `O=C(Nc1ccccc1)c1cccc([C@@H]2C[C@H]2NCC2CC2)c1` (relative stereo) [Example 13, 3-(trans-2-((cyclopropylmethyl)amino)cyclopropyl)-N-phenylbenzamide hydrochloride] are > 7.00, < 5.00 and < 5.00.
The matching figures for `CN1CCC(N[C@@H]2C[C@H]2c2cccc(C(=O)NC3CCCC3)c2)CC1` (relative stereo) [Example 200, N-cyclopentyl-3-(trans-2-((1-methylpiperidin-4-yl)amino)cyclopropyl)benzamide dihydrochloride]: > 7.00, < 5.00 and < 5.00.
As to `O=C(Nc1ccc(Oc2ccc(F)cc2)nc1)c1cccc([C@@H]2C[C@H]2NCC2CC2)c1` (relative stereo) [Example 137, 3-(trans-2-((cyclopropylmethyl)amino)cyclopropyl)-N-(6-(4-fluorophenoxyl)pyridin-3-yl)benzamide bis(trifluoroacetate)], the pIC50 at human LSD1(172-833) was > 7.00; on MAO-B enzyme it was < 5.00; against MAO-A enzyme, < 5.00.
For `N[C@@H]1C[C@H]1c1ccc(C(=O)Nc2ccccc2)cc1` (relative stereo) [Example 1, 4-(trans-2-aminocyclopropyl)-N-phenylbenzamide hydrochloride], the pIC50 at human LSD1(172-833) is > 7.00; at MAO-B enzyme, 5.49; at MAO-A enzyme, 7.00.
For `Cc1cc(NC(=O)c2cccc([C@@H]3C[C@H]3NCC3CC3)c2)sn1` (relative stereo) [Example 152, 3-(trans-2-((cyclopropylmethyl)amino)cyclopropyl)-N-(3-methyl-1,2-thiazol-5-yl)benzamide hydrochloride], the pIC50 against human LSD1(172-833) is > 7.00; at MAO-B enzyme, < 5.00; at MAO-A enzyme it was < 5.00.
Turning to `Cc1cc(NC(=O)c2cccc([C@@H]3C[C@H]3NC3CCC(F)(F)CC3)c2)on1` (relative stereo) [Example 216, 3-(trans-2-((4,4-difluorocyclohexyl)amino)cyclopropyl)-N-(3-methyl-1,2-oxazol-5-yl)benzamide hydrochloride], the values for the pIC50 against human LSD1(172-833), at MAO-B enzyme and against MAO-A enzyme were > 7.00, < 5.00 and < 5.00, respectively.
Consider `Cc1ncc(NC(=O)c2cccc([C@@H]3C[C@H]3NCC3CCOCC3)c2)s1` (relative stereo) [Example 90, N-(2-methyl-1,3-thiazol-5-yl)-3-(trans-2-((tetrahydro-2H-pyran-4-ylmethyl)amino)cyclopropyl)benzamide dihydrochloride], for which the pIC50 at human LSD1(172-833) is > 7.00; on MAO-B enzyme, < 5.00; against MAO-A enzyme it was < 5.00.
As to `Cc1ccc(CN[C@@H]2C[C@H]2c2ccc(C(=O)NCc3ccccc3)cc2)s1` (relative stereo) [Example 48, N-benzyl-4-(trans-2-(((5-methyl-2-thienyl)methyl)amino)cyclopropyl)benzamide trifluoroacetate], the pIC50 was > 7.00 at human LSD1(172-833), < 5.00 on MAO-B enzyme and 5.59 against MAO-A enzyme.
The matching figures for `O=C(NCc1ccccc1)c1cccc([C@@H]2C[C@H]2NCC2CC2)c1` (relative stereo) [Example 14, N-benzyl-3-(trans-2-((cyclopropylmethyl)amino)cyclopropyl)benzamide hydrochloride]: > 7.00, < 5.00 and 5.09.
Regarding `Cc1cc(C)nc(Sc2cccc(NC(=O)c3cccc([C@@H]4C[C@H]4NCC4CC4)c3)c2)n1` (relative stereo) [Example 132, 3-(trans-2-((cyclopropylmethyl)amino)cyclopropyl)-N-(3-((4,6-dimethylpyrimidin-2-yl)sulfanyl)phenyl)benzamide trifluoroacetate], the figures for the pIC50 against human LSD1(172-833), at MAO-B enzyme and against MAO-A enzyme were > 7.00, < 5.00 and < 5.00, respectively.
In the case of `O=C(NCc1ccccc1)c1ccc([C@@H]2C[C@H]2NCc2ccc(-c3cnccn3)cc2)cc1` (relative stereo) [Example 45, N-benzyl-4-(trans-2-((4-(pyrazin-2-yl)benzyl)amino)cyclopropyl)benzamide bis(trifluoroacetate)], the pIC50 against human LSD1(172-833) is > 7.00; on MAO-B enzyme, < 5.00; against MAO-A enzyme, 5.77.
The matching figures for `O=C(NCc1ccncc1)c1ccc([C@@H]2C[C@H]2NCC2CC2)cc1` (relative stereo) [Example 17, 4-(trans-2-((cyclopropylmethyl)amino)cyclopropyl)-N-(pyridin-4-ylmethyl)benzamide bis(trifluoroacetate)]: > 7.00, < 5.00 and < 5.00.
On the same counts, the results for `COc1ccc(CN[C@@H]2C[C@H]2c2ccc(C(=O)NCc3ccccc3)cc2)cc1` (relative stereo) [Example 35, N-benzyl-4-(trans-2-((4-methoxybenzyl)amino)cyclopropyl)benzamide trifluoroacetate] are > 7.00, < 5.00 and 5.51.
As to `Cn1cc(NC(=O)c2ccc([C@@H]3C[C@H]3NCC3CC3)cc2)cn1` (relative stereo) [Example 53, 4-(trans-2-((cyclopropylmethyl)amino)cyclopropyl)-N-(1-methyl-1H-pyrazol-4-yl)benzamide dihydrochloride], the pIC50 is > 7.00 against human LSD1(172-833), < 5.00 at MAO-B enzyme and < 5.00 at MAO-A enzyme.
Take `O=C(NCc1ncccc1C(F)(F)F)c1ccc([C@@H]2C[C@H]2NCC2CC2)cc1` (relative stereo) [Example 26, 4-(trans-2-((cyclopropylmethyl)amino)cyclopropyl)-N-((3-(trifluoromethyl)pyridin-2-yl)methyl)benzamide bis(trifluoroacetate)]: the pIC50 at human LSD1(172-833) is > 7.00; at MAO-B enzyme it was < 5.00; at MAO-A enzyme it was < 5.00.
Turning to `CN(C)c1ccccc1CN[C@@H]1C[C@H]1c1ccc(C(=O)NCc2ccccc2)cc1` (relative stereo) [Example 42, N-benzyl-4-(trans-2-((2-(dimethylamino)benzyl)amino)cyclopropyl)benzamide bis(trifluoroacetate)], the pIC50 at human LSD1(172-833) was > 7.00; at MAO-B enzyme it was < 5.00; against MAO-A enzyme it was 5.47.
As to `O=C(NCc1ccccc1)c1ccc([C@@H]2C[C@H]2NCc2ccc(C(F)(F)F)cc2)cc1` (relative stereo) [Example 38, N-benzyl-4-(trans-2-((4-(trifluoromethyl)benzyl)amino)cyclopropyl)benzamide trifluoroacetate], the pIC50 against human LSD1(172-833) is > 7.00; at MAO-B enzyme it was < 5.00; against MAO-A enzyme, 5.66.
The matching figures for `N#CCN(Cc1ccccc1)C(=O)c1ccc([C@@H]2C[C@H]2NCC2CC2)cc1` (relative stereo) [Example 22, N-benzyl-N-(cyanomethyl)-4-(trans-2-((cyclopropylmethyl)amino)cyclopropyl)benzamide trifluoroacetate]: > 7.00, < 5.00 and < 5.00.
The matching figures for `Cc1cnc(CNC(=O)c2ccc([C@@H]3C[C@H]3NCC3CC3)cc2)cn1` (relative stereo) [Example 15, 4-(trans-2-((cyclopropylmethyl)amino)cyclopropyl)-N-((5-methylpyrazin-2-yl)methyl)benzamide bis(trifluoroacetate)]: > 7.00, < 5.00 and < 5.00.
In the case of `CC(C)(C)n1cc(NC(=O)c2cccc([C@@H]3C[C@H]3NCC3CCOCC3)c2)cn1` (relative stereo) [Example 89, N-(1-tert-butyl-1H-pyrazol-4-yl)-3-(trans-2-((tetrahydro-2H-pyran-4-ylmethyl)amino)cyclopropyl)benzamide dihydrochloride], the pIC50 against human LSD1(172-833) is > 7.00; at MAO-B enzyme, < 5.00; at MAO-A enzyme it was < 5.00.
With `CC(=O)N1CCC(N[C@@H]2C[C@H]2c2cccc(C(=O)Nc3cnn(Cc4ccc(F)cc4)c3)c2)CC1` (relative stereo) [Example 218, 3-(trans-2-((1-acetylpiperidin-4-yl)amino)cyclopropyl)-N-(1-(4-fluorobenzyl)-1H-pyrazol-4-yl)benzamide dihydrochloride], the pIC50 against human LSD1(172-833) is > 7.00; on MAO-B enzyme it was < 5.00; on MAO-A enzyme, < 5.00.
